# Reference: ChEMBL document CHEMBL4842391, “Discovery and Nanosized Preparations of (S,R)-Tylophorine Malate as Novel anti-SARS-CoV-2 Agents” (ACS Med Chem Lett, 2021)
# Active and inactive are the calls of the source. No cut-off for these calls is given here.
# How the values were obtained:
# SARS-CoV-2 [1] = assay: Antiviral activity against SARS-CoV-2 C-Tan-nCoV Wuhan strain 01 virus infected in Hamster rat assessed as widening of perivascular interstitium at 5 mg/kg, inh administered for 3 days starting from 1 hr post infection and measured on day 4 by histopathological analysis; assay type: functional, organism-based; settings: Severe acute respiratory syndrome coronavirus 2, time 4.0 day
# SARS-CoV-2 [2] = assay: Antiviral activity against SARS-CoV-2 C-Tan-nCoV Wuhan strain 01 virus infected in Hamster rat assessed as infiltration of neutrophils at 5 mg/kg, inh administered for 3 days starting from 1 hr post infection and measured on day 4 by histopathological analysis; assay type: functional, organism-based; settings: Severe acute respiratory syndrome coronavirus 2, time 4.0 day
# SARS-CoV-2 [3] = assay: Antiviral activity against SARS-CoV-2 C-Tan-nCoV Wuhan strain 01 virus infected in Hamster rat assessed as infiltration of neutrophils at 25 mg/kg, inh administered for 3 days starting from 1 hr post infection and measured on day 4 by histopathological analysis; assay type: functional, organism-based; settings: Severe acute respiratory syndrome coronavirus 2, time 4.0 day
# SARS-CoV-2 [4] = assay: Antiviral activity against SARS-CoV-2 C-Tan-nCoV Wuhan strain 01 infected in African green monkey Vero cells assessed as inhibition of viral replication measured after 48 hrs by RT-qPCR method; assay type: functional, organism-based; settings: Severe acute respiratory syndrome coronavirus 2, C-Tan-nCoV Wuhan strain 01, Vero
# SARS-CoV-2 [5] = assay: Antiviral activity against SARS-CoV-2 C-Tan-nCoV Wuhan strain 01 virus infected in Hamster rat assessed as widening of perivascular interstitium at 25 mg/kg, inh administered for 3 days starting from 1 hr post infection and measured on day 4 by histopathological analysis; assay type: functional, organism-based; settings: Severe acute respiratory syndrome coronavirus 2, time 4.0 day
# SARS-CoV-2 [6] = assay: Antiviral activity against SARS-CoV-2 C-Tan-nCoV Wuhan strain 01 virus infected in Hamster rat assessed as widening of bronchus at 5 mg/kg, inh administered for 3 days starting from 1 hr post infection and measured on day 4 by histopathological analysis; assay type: functional, organism-based; settings: Severe acute respiratory syndrome coronavirus 2, time 4.0 day
# SARS-CoV-2 [7] = assay: Antiviral activity against SARS-CoV-2 C-Tan-nCoV Wuhan strain 01 virus infected in Hamster rat assessed as widening of alveolar septum at 25 mg/kg, inh administered for 3 days starting from 1 hr post infection and measured on day 4 by histopathological analysis; assay type: functional, organism-based; settings: Severe acute respiratory syndrome coronavirus 2, time 4.0 day
# SARS-CoV-2 [8] = assay: Antiviral activity against SARS-CoV-2 C-Tan-nCoV Wuhan strain 01 virus infected in Hamster rat assessed as infiltration of lymphocytes at 5 mg/kg, inh administered for 3 days starting from 1 hr post infection and measured on day 4 by histopathological analysis; assay type: functional, organism-based; settings: Severe acute respiratory syndrome coronavirus 2, time 4.0 day
# SARS-CoV-2 [9] = assay: Antiviral activity against SARS-CoV-2 C-Tan-nCoV Wuhan strain 01 virus infected in Hamster rat assessed as widening of alveolar septum at 5 mg/kg, inh administered for 3 days starting from 1 hr post infection and measured on day 4 by histopathological analysis; assay type: functional, organism-based; settings: Severe acute respiratory syndrome coronavirus 2, time 4.0 day
# [10] = Toxicity in Hamster rat infected with SARS-CoV-2 C-Tan-nCoV Wuhan strain 01 assessed as body weight loss at 25 mg/kg, inh measured after 4 days; assay type: organism-based; settings: in vivo, inhaled_or_intranasal, 96 h, time 4 day
# SARS-CoV-2 [11] = assay: Antiviral activity against SARS-CoV-2 C-Tan-nCoV Wuhan strain 01 virus infected in Hamster rat assessed as widening of bronchus at 25 mg/kg, inh administered for 3 days starting from 1 hr post infection and measured on day 4 by histopathological analysis; assay type: functional, organism-based; settings: Severe acute respiratory syndrome coronavirus 2, time 4.0 day
# SARS-CoV-2 [12] = assay: Antiviral activity against SARS-CoV-2 C-Tan-nCoV Wuhan strain 01 virus infected in Hamster rat assessed as infiltration of lymphocytes at 25 mg/kg, inh administered for 3 days starting from 1 hr post infection and measured on day 4 by histopathological analysis; assay type: functional, organism-based; settings: Severe acute respiratory syndrome coronavirus 2, time 4.0 day
# [13] = Cytotoxicity against African green monkey Vero cells; assay type: cell-based; settings: chlorocebus sabaeus
# [14] = Toxicity in Hamster rat infected with SARS-CoV-2 C-Tan-nCoV Wuhan strain 01 assessed as body weight loss at 5 mg/kg, inh measured after 4 days; assay type: organism-based; settings: in vivo, inhaled_or_intranasal, 96 h, time 4 day
# [15] = Safety index, ratio of CC50 for African green monkey Vero cells to EC50 for antiviral activity against SARS-CoV-2 C-Tan-nCoV Wuhan strain 01 infected in African green monkey Vero cells; assay type: toxicity; settings: read-out: Ratio CC50/EC50
SMILES,Activity (SARS-CoV-2 [1]),Activity (SARS-CoV-2 [2]),Activity (SARS-CoV-2 [3]),EC50 (SARS-CoV-2 [4]) [nM],Activity (SARS-CoV-2 [5]),Activity (SARS-CoV-2 [6]),Activity (SARS-CoV-2 [7]),Activity (SARS-CoV-2 [8]),Activity (SARS-CoV-2 [9]),Activity [10],Activity (SARS-CoV-2 [11]),Activity (SARS-CoV-2 [12]),CC50 [13] [nM],Activity [14],selectivity ratio [15]
CCC(CC)COC(=O)[C@H](C)N[P@](=O)(OC[C@H]1O[C@@](C#N)(c2ccc3c(N)ncnn23)[C@H](O)[C@@H]1O)Oc1ccccc1 [REMDESIVIR],Active,Active,Active,800,Active,Active,Active,Active,Active,Non-Toxic,Active,Active,,,
COc1cc2c3c(c4cc(OC)c(OC)cc4c2cc1OC)CN1CCC[C@H]1C3.O=C(O)C[C@@H](O)C(=O)O,,,,30,,,,,,,,,26200,Non-Toxic,268
